Data reported in patent US7612211B2, “Benzimidazole TRPV1 inhibitors” (Janssen Pharmaceutica N.V., priority 2006, dated 2009).

Experiments:
[1] = test system: male Sprague-Dawley rats; assay: CFA-induced inflammatory pain, reversal of thermal hyperalgesia (radiant heat paw stimulator); assay type: in vivo; details: Rattus norvegicus, po, 10 mg/kg orally, 24 h after CFA, maximal during the 300 min test, read-out: % Reversal (maximal percent reversal of hypersensitivity)
Protocol: Compounds of the present invention were tested in animal models of inflammation and inflammatory pain. To assess the ability of test compounds to reverse thermal hyperalgesia, baseline response latencies on a radiant heat (RH) paw stimulator were obtained before an intraplantar injection of 100 μL (1 μg/μL) CFA (1:1 CFA:saline) in male Sprague-Dawley rats. Only withdrawal responses that were quick hind paw movements (with or without licking of the hind paw) were recorded. Paw movements associated with locomotion or a shifting of weight were not considered a withdrawal response. The stimulus intensity that produced 10-15 sec baseline withdrawal latencies was used and a maximum cutoff of 20 sec was imposed. Hypersensitivity was evaluated 24 h after CFA.
Following the post-inflammogen latency assessment, rats were orally dosed (2.5 mL/kg) with test compound (10 mg/kg) or vehicle (20% hydroxypropyl beta cyclodextran). To determine the time of peak effect, latencies were redetermined 30, 60, 100, 180 and 300 min after compound administration.
Data are presented as the maximal percent reversal of hypersensitivity obtained during the 300 min test, which was calculated for each animal according to the formula: % reversal=100%×(treatment response−post-inflammogen response)/(pre-inflammogen response−post-inflammogen response)

[2] = molecular target: T1, hTRPV1 (Homo sapiens, UniProt Q8NER1); assay: Human TRPV1 (hTRPV1) functional assay, FLIPR intracellular Ca2+, capsaicin challenge; assay type: cell-based; details: HEK293 cells expressing hTRPV1, capsaicin 0.030 μM challenge; for IC50: derived from a variety of test concentrations, read-out: IC50 value (symbol c); for inhibition at 0.2 µM: test concentration of 0.2 μm, read-out: percent inhibition (symbol b); for inhibition at 0.5 µM: test concentration of 0.5 μm, read-out: percent inhibition (symbol a)
T1 construct: expressed in transfected cells; host or cells: HEK293
Summary of the method: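 HEK293 cells expressing the channel, loaded with Calcium 3 dye, were exposed to compounds for 5 min before capsaicin 0.030 μM (~80% maximal). FLIPR Ca2+ read; IC50/EC50 from quadruplicate concentration-response, or percent inhibition at 0.5 μm or 0.2 μm.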

[3] = molecular target: T1, hTRPV1; assay: Human TRPV1 [3H]RTX binding assay (membranes of transfected HEK293 cells); details: inhibition of [3H]RTX binding
Protocol: Compounds of the present invention were tested for their ability to inhibit the binding of [^3H] RTX to hTRPV1 receptors in a [^3H] RTX binding assay as previously described (See, PCT International Application WO02/33411A1 and Elfrida G. R. et al., J. Pharmacol. Exp. Ther., 2002, 300(1): 9-17.)
HEK293 cells were transfected with hTRPV1 vanilloid receptors and washed with Hank's balanced Salt Solution, dissociated with cell dissociation buffer (Sigma), and then centrifuged at 1000×g for 5 min. Cell pellets were homogenized in cold 20 mM HEPES buffer (pH=7.4), containing 5.8 mM NaCl, 320 mM sucrose, 2 mM MgCl2, 0.75 CaCl2 and 5 mM KCl and centrifuged at 1000×g for 15 min. The resultant supernatant was then centrifuged at 40,000×g for 15 min. The pelleted membranes were stored in a freezer at −80° C.
Approximately 120 μg protein/mL from membranes were incubated with indicated concentrations of [^3H]RTX in 0.5 mL of the HEPES buffer (pH 7.4) containing 0.25 mg/mL fatty acid-free bovine serum albumin at 37° C. for 60 min. […] Bound radioactivity was quantified by scintillation counting. Non-specific binding was measured in the presence of 200 nM unlabeled RTX.
Data were calculated according to the equation: % inhibition=100%×[(total binding−binding)/(total binding−non specific binding)]. Ki values were calculated using a Prism program.

T1 sequence (Q8NER1 whole entry): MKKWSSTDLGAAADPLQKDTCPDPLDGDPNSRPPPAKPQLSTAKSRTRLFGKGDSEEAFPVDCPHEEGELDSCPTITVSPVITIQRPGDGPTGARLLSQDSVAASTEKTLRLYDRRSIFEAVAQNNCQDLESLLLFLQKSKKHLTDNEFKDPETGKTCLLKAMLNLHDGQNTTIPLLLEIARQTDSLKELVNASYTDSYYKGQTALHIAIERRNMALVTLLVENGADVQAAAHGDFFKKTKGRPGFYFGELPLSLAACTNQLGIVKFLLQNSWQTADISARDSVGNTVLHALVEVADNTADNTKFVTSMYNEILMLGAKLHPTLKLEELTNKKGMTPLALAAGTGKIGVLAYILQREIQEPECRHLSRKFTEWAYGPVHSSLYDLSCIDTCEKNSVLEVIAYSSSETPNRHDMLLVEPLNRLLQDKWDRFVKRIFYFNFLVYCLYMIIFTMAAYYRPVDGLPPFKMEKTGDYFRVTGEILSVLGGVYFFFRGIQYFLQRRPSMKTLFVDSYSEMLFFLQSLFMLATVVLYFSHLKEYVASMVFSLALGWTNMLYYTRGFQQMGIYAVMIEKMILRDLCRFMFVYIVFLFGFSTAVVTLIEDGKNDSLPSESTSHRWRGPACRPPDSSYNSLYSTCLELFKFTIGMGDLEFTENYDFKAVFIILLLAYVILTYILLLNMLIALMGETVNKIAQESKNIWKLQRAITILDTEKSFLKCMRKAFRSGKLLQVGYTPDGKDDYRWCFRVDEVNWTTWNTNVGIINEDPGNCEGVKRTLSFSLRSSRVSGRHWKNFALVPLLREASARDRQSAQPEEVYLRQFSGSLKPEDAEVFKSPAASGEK

Row | IC50 [2] | inhibition at 0.2 µM [2] | inhibition at 0.5 µM [2] | Ki [3] | Compound | inhibition in vivo at 10 mg/kg [1]
1 | 4.9 nM | 97% | – | – | CS(=O)(=O)c1ccccc1-c1ccc2[nH]c(COc3ccc(S(=O)(=O)C(F)(F)F)cc3)nc2c1 [Cpd 86, 5-(2-methanesulfonyl-phenyl)-2-(4-trifluoromethanesulfonyl-phenoxymethyl)-1H-benzoimidazole] | 100%
2 | 14 nM | – | 99% | – | CC(C)(O)c1ccccc1-c1ccc2[nH]c(COc3ccc(C(F)(F)F)cc3)nc2c1 [Cpd 21, 2-{2-[2-(4-trifluoromethyl-phenoxymethyl)-1H-benzoimidazol-5-yl]-phenyl}-propan-2-ol] | 100%
3 | 10 nM | – | 94% | – | CS(=O)(=O)Nc1ccccc1-c1ccc2[nH]c(COc3ccc(C(F)(F)F)cc3)nc2c1 [Cpd 101, N-{2-[2-(4-trifluoromethyl-phenoxymethyl)-1H-benzoimidazol-5-yl]-phenyl}-methanesulfonamide] | 22%
4 | 2.1 nM | – | 94% | – | CS(=O)(=O)c1ccccc1-c1ccc2[nH]c(COc3ccc(C(F)(F)F)cc3)nc2c1 [Cpd 98, 5-(2-methanesulfonyl-phenyl)-2-(4-trifluoromethyl-phenoxymethyl)-1H-benzoimidazole] | 30%
5 | 10 nM | – | 99% | – | NS(=O)(=O)c1ccccc1-c1ccc2[nH]c(COc3ccc(OC(F)(F)F)cc3)nc2c1 [Cpd 16, 2-[2-(4-trifluoromethoxy-phenoxymethyl)-1H-benzoimidazol-5-yl]-benzenesulfonamide] | 70%
6 | 10 nM | – | 99% | – | NS(=O)(=O)c1ccccc1-c1ccc2[nH]c(COc3ccc(S(=O)(=O)C(F)(F)F)cc3)nc2c1 [Cpd 2, 2-[2-(4-trifluoromethanesulfonyl-phenoxymethyl)-1H-benzoimidazol-5-yl]-benzenesulfonamide] | 80%
7 | 1 nM | – | 100% | – | CNS(=O)(=O)c1ccccc1-c1ccc2[nH]c(COc3ccc(C(F)(F)F)cc3)nc2c1 [Cpd 17, N-methyl-2-[2-(4-trifluoromethyl-phenoxymethyl)-1H-benzoimidazol-5-yl]-benzenesulfonamide] | 100%
8 | 3 nM | – | 100% | 2.7 nM | NS(=O)(=O)c1ccccc1-c1ccc2[nH]c(COc3ccc(C(F)(F)F)cc3)nc2c1 [Cpd 1, 2-[2-(4-trifluoromethyl-phenoxymethyl)-1H-benzoimidazol-5-yl]-benzenesulfonamide] | 85%
9 | – | 11% | – | – | CS(=O)(=O)c1ccccc1-c1ccc2[nH]c(COc3cc(Cl)cc(Cl)c3)nc2c1 [Cpd 93, 2-(3,5-dichloro-phenoxymethyl)-5-(2-methanesulfonyl-phenyl)-1H-benzoimidazole] | –
10 | 12.5 nM | 90% | – | – | CC(O)CS(=O)(=O)c1ccccc1-c1ccc2[nH]c(COc3ccc(C(F)(F)F)cc3)nc2c1 (centres unmarked) [Cpd 160, 1-{2-[2-(4-trifluoromethyl-phenoxymethyl)-1H-benzoimidazol-5-yl]-benzenesulfonyl}-propan-2-ol] | –
11 | 18 nM | 87% | – | – | CS(=O)(=O)c1ccccc1-c1ccc2[nH]c(COc3ccc(Cl)cc3)nc2c1 [Cpd 59, 2-(4-chloro-phenoxymethyl)-5-(2-methanesulfonyl-phenyl)-1H-benzoimidazole] | –
12 | – | – | 8% | – | CN(C)S(=O)(=O)c1ccc(-c2ccc3[nH]c(COc4ccc(C(F)(F)F)cc4)nc3c2)cc1 [Cpd 129, N,N-dimethyl-4-[2-(4-trifluoromethyl-phenoxymethyl)-1H-benzoimidazol-5-yl]-benzenesulfonamide] | –
13 | – | – | 37% | – | CN(Cc1ccc(C(F)(F)F)cc1)c1nc2cc(-c3ccccc3S(N)(=O)=O)ccc2[nH]1 [Cpd 137, 2-{2-[methyl-(4-trifluoromethyl-benzyl)-amino]-1H-benzoimidazol-5-yl}-benzenesulfonamide] | –
